Where two headings read alike, the source gives them in different places.

Experiment [1] concerns spontaneous formation of Advanced Glycation End-products (AGEs). Put plainly: Anti-glycation in tubo assay (BSA + ribose, fluorescence). The format is biochemical. The following applies: 17 h at 37° C.; for IC50: BSA + ribose, read-out: IC50 in well (concentration which inhibits AGEs formation by half). The method, then:
The anti-glycation effect was evaluated using an in tubo assay to measure the spontaneous formation of Advanced Glycation End-products (AGEs). This assay was conducted on a 96-wells microplate. […] The extracts were diluted in sodium phosphate buffer (0.1 M, pH 7.4). Several dilutions were tested. Each diluted extract was run in triplicate. A standard range of aminoguanidine was used as inhibitor reference (positive control). A mixture of the sodium phosphate buffer and BSA was used to validate the experiment and a mixture of sodium phosphate buffer, BSA and ribose was used as the positive control. Two blanks were carried out for the extract: • with phosphate buffer, BSA and extract • with phosphate buffer, ribose and extract The microplate was agitated and incubated for 17 h at 37° C. The fluorescence reading was performed with ? excitation 340 nm and ? emission 420 nm. The anti-glycation activity of the extract was calculated as follows: [formula] FI: Fluorescence of tested extract; blank extract (ribose or BSA); positive control; negative control. Based on the above measurements and calculation, the IC50, i.e. the concentration of the extract which inhibits AGEs formation by half, was calculated.

For experiment [2], the system named is Lactobacillus acidophilus. The experiment can be described thus: Growth promotion of Lactobacillus acidophilus (OD600). In kind it is cell-based. The following applies: MRS broth 50% in PBS, 48 hours, anaerobic. The procedure:
In order to further investigate the effect of the active of the present invention on bacteria, the growth of Lactobacillus acidophilus in MRS medium supplemented with different concentrations of EGCG MONOG was evaluated for 48 hours.
L. acidophilus (DSM 20079) was cultivated at 37° C. under anaerobic conditions on De Man, Rogosa Sharpe (MRS) agar. After bacterial amplification in culture medium, for each bacterial strain, a bacterial suspension was prepared using the assay medium (MRS broth 50% in PBS) and adjusted to an optical density at 600 nm (OD600 nm) of 0.2. The bacterial suspension was then transferred to 96-well plates, some of which contained the test compounds from 0.015% to 1%. The strain cultivated with powdered milk at 0.01% served as a positive control.
Bacterial cultures were incubated at 37° C. under agitation (˜280 rpm) and under anaerobic condition. OD600 nm were read in kinetic for 48 hours using a microplate spectrophotometer (EPOCH2, BioTek Instruments) to analyze the bacterial growth.
All experimental conditions were performed in triplicate.

Experiment [3] concerns Lactobacillus acidophilus. The following applies: 1%, culture supernatant, NMR, vs untreated. The procedure:
The supernatants of the cultures previously described in Example 10, both of the untreated strain culture and the culture of L. acidophilus treated with 1% EGCG MONOG were kept and frozen at −80° C. before analysis using high-field NMR. For each of these two conditions, three samples were analyzed to assess the tests reproducibility (n=3).
For each sample, 400 μl of supernatant were taken and 100 μl of D2O/TSP (3-(trimethylsilyl)propionic-2,2,3,3-d4 acid sodium salt, internal reference) were added at a concentration of 1 g/l. The samples were analyzed by high field ^1H NMR on a Bruker ASCEND 500 spectrometer operating at a proton frequency of 500 MHz using a 5 mm cryosonde probe. NMR spectra were calibrated to TSP-d4 at 0 ppm using Topspin software version 4.3.0 (Bruker Biospin, Germany). Quantification of metabolites was performed by utilizing the internal standard (TSP-d4) added at a known concentration. Compounds were quantified by the relative ratio of the intensities of their peak integrals and those of the internal standard.

In experiment [4] the test system is female volunteers with a dark skin type (phototype IV or more) and dull skin. The experiment can be described thus: Clinical evaluation on African skin: skin color by Chromameter L* parameter. The following applies: cream 0.4%, full face twice daily; for increase of L* on uneven skin tone area: dark skin type. In kind it is in vivo, human. The procedure:
The clinical study was carried out on 85 female volunteers aged from 19 to 47 years, which were divided in three groups: active, placebo and aglycone. The study was performed in South Africa on female volunteers with a dark skin type (phototype IV or more) and dull skin. All participants provided signed informed consent at the beginning of the study. The study was conducted according to the guidelines of the Declaration of Helsinki. […] Skin color evolution was measured after 14, 28 and 56 days using L* parameter measurement by Chromameter®.
The skin color was evaluated by means of a Chromameter CR400, which measures skin color, and the parameter L* (lightness) was recorded. The greater the value, the lighter the skin color. Depending on the test type, at least three or at least 15 readings were taken at each test sub-site for each time interval to serve as the specific pigmentation sport color measurement component of the study. Skin color was analyzed at D0, D14, D28 and D56.
For all studies in vivo, a Shapiro Wilk test was used to verify whether the raw data followed the Gaussian Law. In case of Normally-distributed data, the mean values were compared using either an unpaired or paired t student test. In case of non-Normally-distributed data, a Wilcoxon (paired) and Kruskal-Wallis test followed by a Mann-Whitney U (unpaired) test were used for paired data and unpaired data, respectively.

For a further experiment, the system named is human skin explants. The experiment can be described thus: Whitening activity (ex vivo), Fontana-Masson staining for melanin quantification. The following applies: at 2%, topical, 7 days. In kind it is cell-based. The method, then:
Fresh human skin explants were obtained from skin phototype III and VI donors, aged of 46±25 years. […] Kojic acid (Sigma-Aldrich) at 2% was topically applied and incubated under the same conditions, serving as positive control. The untreated condition was treated with the vehicle (distilled water). The medium was renewed every other day. After the end of culture, the skin explants were sampled and put in formalin before being dehydrated and embedded in paraffin for Fontana-Masson staining.
Skin explants fixed in formalin were dehydrated and embedded in paraffin. Sections of 4 μm thickness were dewaxed and then stained by Fontana-Masson silver method for melanin.
Images were collected using an Axio Observer Inverted fluorescence microscope (Zeiss) in bright field mode.
Melanin was quantified using two open source optical imaging software programs. Photomicrographs (jpeg format) of Fontana-Masson tissue sections were opened in GIMP-GNU Image Manipulation Program. The brown-black color signals corresponding to melanin grains on stained sections were selected, copied and pasted into a new image and saved as a jpeg file; this jpeg file consists solely of black/brown (melanin grains) on a white background. This image was subsequently opened using the ImageJ program. The image was then inverted and the mean intensity was obtained.

As to `O=C(O[C@@H]1Cc2c(O)cc(O)cc2O[C@@H]1c1cc(O)c(O[C@H]2O[C@H](CO)[C@@H](O)[C@H](O)[C@H]2O)c(O)c1)c1cc(O)c(O)c(O)c1` [epigallocatechin gallate 4′-O-α-monoglucoside], the IC50 is 133 µM in experiment [1] (listed as ECGC monoglucoside) and 118 µM in experiment [1]. Besides, the “Inhibition AGE's” value in experiment [1] (tested concentration 0.08 mM) was 31.01%; in experiment [1] (tested concentration 0.4 mM), 53.22%; in experiment [1] (tested concentration 1 mM), 81.54%; in experiment [1] (tested concentration 8 mM), 109.26%. Moreover, the figures for the “increase of growth of Lactobacillus acidophilus vs culture without EGCG MONOG” value in experiment [2] (0.13%), in experiment [2] (0.4%) and in experiment [2] (1%) were 6%, 9% and 27%, respectively. In addition, the “decrease of consumption of sugars by L. acidophilus” value in experiment [3] was found to be 17%. Also, in experiment [3], the “increase of Trigonelline released by L. acidophilus” value is on record as “up to 65%”. In addition, the “increase of polysorbate consumption by L. acidophilus” value in experiment [3] is reported as 51%. The “increase of L*, global skin color, 15 measurements on hemi face” value in experiment [4] (dark skin type, 14, 28 and 56 days) is “up to +6.8%”. Besides, the entries for the “increase of L* on uneven skin tone area” value in experiment [4] (after 14 days), in experiment [4] (after 28 days) and in experiment [4] (after 56 days) were “+1.3%”, “+4.7%” and “+6.3%”, respectively.
Consider `O=C1O[C@H]([C@@H](O)CO)C(O)=C1O` [Ascorbic acid, ascorbic acid], for which the “reduction of melanin content compared to untreated” value with human skin explants was 28%.

For the origin of these results see US20260152777A1, “METHOD FOR PRODUCING EPIGALLOCATECHIN GALLATE MONOGLUCOSIDE” (GIVAUDAN SA, priority 2022, published 2026).
